Experiments:
[1] = molecular target: T1, Porcine ventricle myofibrils (ventricular myosin ATPase) (Sus scrofa, UniProt P79293); assay: Myofibril ATPase assay, porcine ventricle myofibrils; type: biochemical, porcine (Yucatan minipigs); details: porcine ventricle myofibrils
T1 construct: Myofibrils from porcine cardiac muscle was isolated from the left ventricle of Yucatan minipigs; tissue Exemplar Genetics; host or cells: left ventricle of Yucatan minipigs, myofibrils prepared in house
Outline: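 In a coupled enzyme format, ADP from myofibril ATPase drives NADH oxidation, monitored kinetically at 340 nm for 75 min using minipig ventricle myofibrils. Effective concentrations giving 25% loss or gain of activity relative to vehicle were calculated from 4-parameter fits.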

[2] = tested on: Porcine atria myofibrils (atrial myosin ATPase); assay: Myofibril ATPase assay, porcine atria myofibrils; type: biochemical; details: porcine atria myofibrils
Outline: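 Coupled PK-LDH readout, NADH loss at 340 nm, kinetic 75 min. Porcine atria myofibrils, pCa buffer (PIPES/CaCl2/EGTA, pH 7.0). Slopes (mAU/min) normalized to vehicle = 100%, 4-parameter fit; Y75 or Y125 reported.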

[3] = tested on: Rabbit Psoas myofibrils (skeletal myosin ATPase); assay: Myofibril ATPase assay, rabbit psoas (skeletal) myofibrils; type: biochemical; details: rabbit psoas myofibrils
Outline: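 Readout: A340 decline from NADH oxidation, PK/LDH-coupled to ADP release; kinetic reads over 75 min. Buffer: pCa (PIPES, CaCl2, EGTA), pH 7.0. Linear-regression slopes vs vehicle, 4PL fit; reported as concentration giving 75% (Y75) or 125% (Y125) of vehicle activity.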

[4] = Y75 value (75% activity relative to no compound)
[5] = ‡ Y125 value, not a Y75 value (125% activity relative to no compound)

T1 sequence (P79293 whole entry): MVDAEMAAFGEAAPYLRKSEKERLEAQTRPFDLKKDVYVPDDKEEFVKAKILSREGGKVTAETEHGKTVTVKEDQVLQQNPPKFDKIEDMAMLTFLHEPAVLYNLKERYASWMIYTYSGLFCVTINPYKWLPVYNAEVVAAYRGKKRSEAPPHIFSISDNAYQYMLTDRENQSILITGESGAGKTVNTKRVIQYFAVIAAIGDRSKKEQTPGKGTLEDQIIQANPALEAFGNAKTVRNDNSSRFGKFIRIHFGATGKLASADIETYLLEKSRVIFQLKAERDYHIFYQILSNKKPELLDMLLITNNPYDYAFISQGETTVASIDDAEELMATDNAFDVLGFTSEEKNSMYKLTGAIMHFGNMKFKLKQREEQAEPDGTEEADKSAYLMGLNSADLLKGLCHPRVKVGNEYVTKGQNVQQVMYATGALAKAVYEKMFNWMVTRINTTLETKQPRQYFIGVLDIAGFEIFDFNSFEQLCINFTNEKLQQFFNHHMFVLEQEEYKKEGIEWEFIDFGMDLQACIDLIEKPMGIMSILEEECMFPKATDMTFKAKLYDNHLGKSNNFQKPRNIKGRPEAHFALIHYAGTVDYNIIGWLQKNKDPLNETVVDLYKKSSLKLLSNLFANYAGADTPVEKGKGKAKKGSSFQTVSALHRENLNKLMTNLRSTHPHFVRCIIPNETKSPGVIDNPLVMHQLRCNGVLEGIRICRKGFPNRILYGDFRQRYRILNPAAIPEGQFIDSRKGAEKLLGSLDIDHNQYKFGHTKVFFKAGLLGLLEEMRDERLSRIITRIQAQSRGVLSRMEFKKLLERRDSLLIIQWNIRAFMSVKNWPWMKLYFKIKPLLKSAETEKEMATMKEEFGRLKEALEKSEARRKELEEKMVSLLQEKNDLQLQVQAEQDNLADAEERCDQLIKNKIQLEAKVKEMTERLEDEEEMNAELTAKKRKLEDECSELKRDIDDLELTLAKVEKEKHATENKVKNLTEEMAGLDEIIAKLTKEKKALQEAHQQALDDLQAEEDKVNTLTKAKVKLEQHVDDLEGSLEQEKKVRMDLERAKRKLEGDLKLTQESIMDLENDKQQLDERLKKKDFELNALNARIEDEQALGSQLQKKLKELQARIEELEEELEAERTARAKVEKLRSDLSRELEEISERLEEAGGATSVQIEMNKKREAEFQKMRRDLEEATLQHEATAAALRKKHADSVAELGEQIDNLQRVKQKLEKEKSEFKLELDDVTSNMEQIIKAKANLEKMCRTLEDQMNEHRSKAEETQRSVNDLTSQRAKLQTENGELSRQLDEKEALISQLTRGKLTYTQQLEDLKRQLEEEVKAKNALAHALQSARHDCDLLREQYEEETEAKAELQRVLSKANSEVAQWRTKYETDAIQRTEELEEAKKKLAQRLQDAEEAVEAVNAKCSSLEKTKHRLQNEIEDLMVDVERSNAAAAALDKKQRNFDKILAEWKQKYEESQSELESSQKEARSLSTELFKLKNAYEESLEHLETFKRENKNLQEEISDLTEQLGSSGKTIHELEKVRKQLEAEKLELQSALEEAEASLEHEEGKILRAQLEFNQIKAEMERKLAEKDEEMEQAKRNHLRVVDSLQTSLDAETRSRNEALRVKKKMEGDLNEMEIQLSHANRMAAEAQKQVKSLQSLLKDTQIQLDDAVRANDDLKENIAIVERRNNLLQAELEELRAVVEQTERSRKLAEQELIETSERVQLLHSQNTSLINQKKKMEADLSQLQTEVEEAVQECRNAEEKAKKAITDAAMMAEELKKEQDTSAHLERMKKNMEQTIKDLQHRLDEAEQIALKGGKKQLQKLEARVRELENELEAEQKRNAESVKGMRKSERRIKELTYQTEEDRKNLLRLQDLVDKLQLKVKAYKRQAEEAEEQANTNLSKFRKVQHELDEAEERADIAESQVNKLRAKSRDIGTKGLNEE

Ventricular EC25 ([1]; Y75 value) [µM] | Atrial EC25 [2, 4] [µM] | Skeletal EC25 ([3]; Y75 value) [µM] | Ventricular EC25 ([1]; Y75 value (no ‡ mark)) [µM] | Atrial EC25 ([2]; Y75 value (no ‡ mark)) [µM] | Skeletal EC25 ([3]; Y75 value (no ‡ mark)) [µM] | Structure (SMILES) | other results
– | – | – | 100.00 | 100.00 | 18 | N#Cc1cnc2c(c1)COC[C@@H]2NC(=O)Cc1cc2cc(F)c(F)cc2[nH]c1=O [compound 1055] | –
22.60 | 2.53 | 2.02 | – | – | – | C[C@H](NC(=O)[C@H](C)c1c(C(F)(F)F)c2cnccc2[nH]c1=O)c1ccc(F)cc1F (single isomer, unassigned) [compound 427] | –
– | – | – | 100.00 | 100.00 | 100.00 | C[C@H](NC(=O)Cc1cc2cc(F)c(F)cc2[nH]c1=O)c1ncc(C#N)cn1 (single isomer, unassigned) [compound 2036] | –
20.53 | 2.32 | 0.43 | – | – | – | Cc1nccc2[nH]c(=O)c(CC(=O)N[C@@H](C)c3ccc(F)cc3F)cc12 [compound 445] | –
100.00 | 100.00 | 12.92 | – | – | – | C[C@H](NC(=O)Cc1cc2c(OCC(F)(F)F)nccc2[nH]c1=O)c1ccc(F)cc1F [compound 436] | –
39.76 | 100.00 | 2.98 | – | – | – | C[C@H](NC(=O)Cc1cc2c(C#N)nccc2[nH]c1=O)c1ccc(F)cn1 [compound 475] | –
– | – | – | 0.84 | 0.29 | 0.09 | C[C@H](NC(=O)Cc1c(C2CC2)c2c(F)cccc2[nH]c1=O)c1ncc(C#N)cc1F [compound 1144] | –
– | – | – | 24 | 0.89 | 1.88 | Cc1c(CC(=O)N[C@H](C)c2ccc(C#N)nn2)c(=O)[nH]c2cc(F)c(F)cc12 [compound 1042] | –
– | – | – | 0.06 | 0.07 | 0.12 | Cc1nc(C#N)cnc1[C@@H](C)NC(=O)Cc1c(C)c2cc(F)ccc2[nH]c1=O [compound 1068] | –
– | – | – | 2.41 | 1.13 | 0.36 | Cc1c(CC(=O)N[C@@H]2CCc3cc(C#N)cnc32)c(=O)[nH]c2ccc(F)cc12 [compound 1092] | –
100.00 | 48.27 | 100.00 | – | – | – | Cc1nccc2[nH]c(=O)c(CC(=O)N[C@@H](C)c3ccc(C#N)nn3)c(C)c12 [compound 485] | –
– | – | – | 0.09 | 0.06 | 0.05 | Cc1c(F)ccc2[nH]c(=O)c(CC(=O)N[C@@H](C)c3ncc(F)cc3F)c(C#N)c12 [compound 1148] | –
– | – | – | 1.50 | 1.18 | 100.00 | Cc1c(CC(=O)N[C@H](C)c2ncc(C#N)cn2)c(=O)[nH]c2cccc(F)c12 (single isomer, unassigned) [compound 2041] | –
– | – | – | 56.97 | – | 1.09 | Cc1c(CC(=O)N[C@H](C)c2ncc(C#N)cn2)c(=O)[nH]c2ccc(F)c(C3CC3)c12 (single isomer, unassigned) [compound 2059] | Atrial EC25 [2, 5]: 100.00‡ μM
– | – | – | 100.00 | – | 0.96 | Cc1c(C2(C(=O)N[C@@H](C)c3cc(C#N)ccn3)CC2)c(=O)[nH]c2ccc(F)c(F)c12 (single isomer, unassigned) [compound 2540] | Atrial EC25 [2, 5]: 100.00‡ μM
7.68 | 2.35 | 0.60 | – | – | – | C[C@H](NC(=O)Cc1c(C(F)F)c2cnccc2[nH]c1=O)c1ccc(F)cc1F [compound 438] | –
– | – | – | 10.98 | 0.90 | 1.25 | C[C@H](NC(=O)Cc1c(C#N)c2cc(F)c(F)cc2[nH]c1=O)c1ccc(C#N)cn1 (single isomer, unassigned) [compound 2048] | –

More lines, now with the values behind:

Structure (SMILES) | Ventricular EC25 ([1]; Y75 value) [µM] | Atrial EC25 [2, 4] [µM] | Skeletal EC25 ([3]; Y75 value) [µM] | Ventricular EC25 ([1]; Y75 value (no ‡ mark)) [µM] | Atrial EC25 ([2]; Y75 value (no ‡ mark)) [µM] | Skeletal EC25 ([3]; Y75 value (no ‡ mark)) [µM] | other results
Cc1cc(F)ccc1[C@H](C)NC(=O)Cc1c(C)c2c(C)nccc2[nH]c1=O [compound 407] | 0.33 | 0.10 | 0.02 | – | – | – | –
C[C@@H](NC(=O)Cc1cc2cc(F)c(F)cc2[nH]c1=O)c1ncc(C#N)cc1F (single isomer, unassigned) [compound 3] | – | – | – | 0.31 | 3.40 | 2.33 | –
COc1ccc2[nH]c(=O)c(C(C)C(=O)N[C@@H](C)c3ccc(F)cc3F)cc2c1Cl (stereo partly drawn) [compound 87] | – | – | – | 100.00 | 100.00 | 100.00 | –
C[C@H](NC(=O)Cc1cc2c(F)c(F)ccc2[nH]c1=O)c1ncc(F)cc1F [compound 34] | – | – | – | 0.05 | 0.02 | 0.02 | –
CCOc1nccc2[nH]c(=O)c(CC(=O)N[C@@H](C)c3ccc(F)cc3F)c(C(F)(F)F)c12 [compound 422] | 100.00 | 100.00 | 0.03 | – | – | – | –
Cc1c(C2(C(=O)N[C@@H](C)c3cc(C#N)ccn3)CC2)c(=O)[nH]c2ccc(F)cc12 (single isomer, unassigned) [compound 2578] | – | – | – | – | – | – | Ventricular EC25 [1, 5]: 100.00‡ μM; Atrial EC25 [2, 5]: 100.00‡ μM; Skeletal EC25 [3, 5]: 100.00‡ μM
Cc1c(CC(=O)N[C@@H](CO)c2ccc(C#N)cc2F)c(=O)[nH]c2ccc(F)c(C3CC3)c12 [compound 72] | – | – | – | 0.34 | 0.08 | 0.02 | –
COc1ccc([C@H](C)NC(=O)Cc2c(C)c3c(C)nccc3[nH]c2=O)cn1 (single isomer, unassigned) [compound 291] | 100.00 | 100.00 | 100.00 | – | – | – | –
Cc1c(CC(=O)N[C@H](C)c2ccc(C#N)cc2F)c(=O)[nH]c2ccc(F)c(C#N)c12 [compound 67] | – | – | – | 0.26 | 0.11 | 0.03 | –
Cc1c(CC(=O)N[C@@H](C)c2ncc(F)cc2F)c(=O)[nH]c2ccc(C#N)nc12 (single isomer, unassigned) [compound 250] | 80.59 | 2.60 | 16.64 | – | – | – | –
Cc1c(CC(=O)N[C@H](C)c2ccc(C#N)cc2F)c(=O)[nH]c2ccc(C(F)(F)F)nc12 (single isomer, unassigned) [compound 208] | 9.68 | 2.16 | 0.15 | – | – | – | –
Cc1c(CC(=O)N[C@H](CO)c2ccc(F)cc2F)c(=O)[nH]c2cccc(C#N)c12 (single isomer, unassigned) [compound 89] | – | – | – | 0.32 | 0.05 | 0.04 | –
C[C@H](NC(=O)[C@@H](C)c1cc2c(Br)nccc2[nH]c1=O)c1ccc(F)cc1F (single isomer, unassigned) [compound 344] | 90.74 | 9.52 | 0.23 | – | – | – | –
Cc1nccc2[nH]c(=O)c(CC(=O)N[C@@H](C)c3ccc(F)cc3F)c(C#N)c12 [compound 159] | 6.35 | 1.17 | 0.11 | – | – | – | –
C[C@H](NC(=O)Cc1c(C2CC2)c2cnccc2[nH]c1=O)c1ccc(C#N)cn1 [compound 141] | 100.00 | 100.00 | 8.74 | – | – | – | –
Cc1c(CC(=O)N[C@@H](C)c2ccc(F)cc2F)c(=O)[nH]c2ccnnc12 [compound 418] | 48.43 | 2.66 | 2.19 | – | – | – | –
Cc1c(CC(=O)N[C@H](C)c2ccc(C#N)cn2)c(=O)[nH]c2ccc(F)c(C3CC3)c12 [compound 23] | – | – | – | 1.19 | 100.00 | 0.50 | –
Cc1c(CC(=O)N[C@@H](C)c2ccc(F)cc2F)c(=O)[nH]c2ccnc(Cl)c12 [compound 402] | 0.19 | 0.04 | 0.02 | – | – | – | –
C[C@H](NC(=O)Cc1cc2ccccc2[nH]c1=O)c1ccc(F)cc1F [compound 137] | – | – | – | 3.33 | 1.12 | 0.19 | –
Cc1c(C(F)(F)C(=O)N[C@@H](C)c2ccc(F)cc2F)c(=O)[nH]c2ccnc(Cl)c12 [compound 401] | 0.20 | 0.05 | 0.02 | – | – | – | –
Cc1c(CC(=O)N[C@@H](C)c2ccc(F)cc2F)c(=O)[nH]c2ccc(F)c(Br)c12 [compound 109] | – | – | – | 0.13 | 0.04 | 0.01 | –
Cc1c(CC(=O)N[C@@H](CO)c2ccc(F)cc2F)c(=O)[nH]c2ccc(C(F)(F)F)nc12 [compound 217] | 6.79 | 0.36 | 0.71 | – | – | – | –

From US12448369B2 (Edgewise Therapeutics, Inc., priority 2023, dated 2025)
